System: Plasmodium berghei
Test: Luciferase/luciferin-expressing antifolate-resistant parasites were used to infect a culture of HepG2 cells that were pre-incubated with compounds. Infected hepatocytes emit light due to the luciferase reaction. Assay results are presented as the percent inhibition of light emission compared to control. […]
Assay type: functional
Details: sporozoite; for IC90: read-out: LUCIFERASE INFECTION ASSAY - IC90
[1] = read-out: LUCIFERASE INFECTION ASSAY - IC50

Row | Structure (SMILES) | IC90 [µM] | IC50 [1] [µM] | other results
1 | C=CCn1c(C)cc(C(=O)CSc2nc3ccccc3o2)c1C | 0.129 | – | IC50 (HEPG2TOX_HILL_SLOPE 2.02, HEPG2TOX_R_SQUARED 0.572, PBLUC_HILL_SLOPE 43.7, PBLUC_R_SQUARED 0.493, read-out: LUCIFERASE INFECTION ASSAY - IC50): 0.123 µM
2 | CCCNC(=O)c1c(NC(=O)c2cccc(F)c2)nc2ccc(C)cn12 | > 9.31 | – | IC50 (PBLUC_HILL_SLOPE 9.17, PBLUC_R_SQUARED 0.612, read-out: LUCIFERASE INFECTION ASSAY - IC50): 7.79 µM
3 | COc1cccc(N2C(=O)CC(n3nc(Nc4cccc(C)c4)sc3=S)C2=O)c1 (centres undefined) | > 10 | > 10 | –
4 | Cc1c(S(=O)(=O)c2ccc(Cl)cc2)csc1C(=O)Nc1ccccc1Cl | > 7.74 | – | IC50 (FFLUC_HILL_SLOPE 0.988, FFLUC_R_SQUARED 0.0286, PBLUC_HILL_SLOPE 1.65, PBLUC_R_SQUARED 0.324, read-out: LUCIFERASE INFECTION ASSAY - IC50): 6.99 µM
5 | O=C(Nc1cc(S(=O)(=O)N2CCCC2)ccc1O)c1sccc1-n1cccc1 | 3.25 | – | IC50 (FFLUC_HILL_SLOPE 4.58, FFLUC_R_SQUARED 0.706, PBLUC_HILL_SLOPE 1.57, PBLUC_R_SQUARED 0.879, read-out: LUCIFERASE INFECTION ASSAY - IC50): 0.802 µM
6 | CCn1c(SCc2csc(N(C(C)=O)c3c(C)cc(C)cc3Cl)n2)nnc1C1CC1 | > 10 | > 10 | –
7 | CN(C)c1ccccc1-c1cn2c(-c3cccc(O)c3)cnc2cn1 | > 9.99 | > 9.99 | –
8 | CC1=C2CCC(C)CC23C2C(=O)N(Cc4ccc(Cl)cc4)C(=O)C2C1C1C(=O)N(Cc2ccc(Cl)cc2)C(=O)C13 (centres undefined) | > 5.71 | – | IC50 (HEPG2TOX_HILL_SLOPE 0.355, HEPG2TOX_R_SQUARED 0.414, PBLUC_HILL_SLOPE 1.68, PBLUC_R_SQUARED 0.433, read-out: LUCIFERASE INFECTION ASSAY - IC50): 3.28 µM
9 | O=C(Nc1sc2c(c1CN1CCN(C(=O)c3ccco3)CC1)CCCC2)c1ccccc1F | > 10 | > 10 | –
10 | CCN(CC)CCNC(=O)c1c(C)oc2c1C(=O)c1ccccc1C2=O | 1.15 | – | IC50 (HEPG2TOX_HILL_SLOPE 5.67, HEPG2TOX_R_SQUARED 0.985, PBLUC_HILL_SLOPE 0.945, PBLUC_R_SQUARED 0.645, read-out: LUCIFERASE INFECTION ASSAY - IC50): 0.112 µM
11 | COc1ccc(C(NS(=O)(=O)c2ccc(-n3ncc(Cl)c(Cl)c3=O)cc2)C(C)C)cc1 (centres undefined) | 2.38 | – | IC50 (HEPG2TOX_HILL_SLOPE 9.92, HEPG2TOX_R_SQUARED 0.979, PBLUC_HILL_SLOPE 3.67, PBLUC_R_SQUARED 0.728, read-out: LUCIFERASE INFECTION ASSAY - IC50): 1.31 µM
12 | COc1cc(C(=O)OC(C)C(=O)Nc2sccc2C(N)=O)ccc1C (centres undefined) | > 10 | > 10 | –
13 | Cc1ccc(CNC(=O)c2cc(-c3ccccc3)nn2-c2ccccc2)cc1 | > 10 | – | IC50 (FFLUC_HILL_SLOPE 15.6, FFLUC_R_SQUARED 0.349, read-out: LUCIFERASE INFECTION ASSAY - IC50): > 10 µM
14 | O=C(CC1Sc2ccccc2NC1=O)NCCCn1ccc2ccccc21 (centres undefined) | 3.47 | – | IC50 (HEPG2TOX_HILL_SLOPE 0.0908, HEPG2TOX_R_SQUARED 0.322, PBLUC_HILL_SLOPE 2.29, PBLUC_R_SQUARED 0.881, read-out: LUCIFERASE INFECTION ASSAY - IC50): 1.33 µM
15 | Cc1cc(CSc2ccccc2)ccc1NC(=O)Nc1ccccc1 | > 9.47 | – | IC50 (PBLUC_HILL_SLOPE 1.29, PBLUC_R_SQUARED 0.521, read-out: LUCIFERASE INFECTION ASSAY - IC50): 2.22 µM
16 | CCc1c(C)sc2nc(SCC(=O)c3cc(C)n(-c4ccc5c(c4)OCO5)c3C)n(CC)c(=O)c12 | > 10 | – | IC50 (HEPG2TOX_HILL_SLOPE 1.63, HEPG2TOX_R_SQUARED 0.963, PBLUC_HILL_SLOPE 1.91, PBLUC_R_SQUARED 0.412, read-out: LUCIFERASE INFECTION ASSAY - IC50): 3.47 µM
17 | N#Cc1c(Cl)cccc1Oc1ccc(S(=O)(=O)Oc2c(Cl)cccc2Cl)cc1 | > 7.26 | – | IC50 (PBLUC_HILL_SLOPE 2.67, PBLUC_R_SQUARED 0.0667, read-out: LUCIFERASE INFECTION ASSAY - IC50): 6.81 µM
18 | O=C(CCCNC(=O)c1ccsc1)NNC(=O)c1ccccc1O | > 10 | – | IC50 (PBLUC_HILL_SLOPE 9.95, PBLUC_R_SQUARED 0.0276, read-out: LUCIFERASE INFECTION ASSAY - IC50): > 10 µM
19 | N#Cc1c(Cl)c2ccccc2[nH]c1=O | > 16.1 | 14.9 | –
20 | Cc1ccccc1-c1ccc(CN2CCC3(CC2)C(=O)N(Cc2cccnc2)C(=O)N3C)cc1 | 2.76 | 2.36 | –
21 | O=C(NCCc1c[nH]c2ccccc12)c1ccc2c(c1)CC(c1ccccc1)OC2=O (centres undefined) | > 10 | > 10 | –

Row | Structure (SMILES) | IC90 [µM] | IC50 [1] [µM] | other results
22 | CCOC(=O)c1c(S(=O)(=O)Nc2ccc(OC(F)(F)F)cc2)c(-c2ccccc2)n(-c2ccccc2)c1C | > 6.06 | – | IC50 (HEPG2TOX_HILL_SLOPE 3.6, HEPG2TOX_R_SQUARED 0.938, PBLUC_HILL_SLOPE 3.83, PBLUC_R_SQUARED 0.0999, read-out: LUCIFERASE INFECTION ASSAY - IC50): 3.44 µM
23 | COc1cc(/C=C(/C(=O)c2cccc(Cl)c2)c2nc3ccccc3[nH]2)ccc1OCc1ccccc1 | > 10 | – | IC50 (HEPG2TOX_HILL_SLOPE 8.02, HEPG2TOX_R_SQUARED 0.115, read-out: LUCIFERASE INFECTION ASSAY - IC50): > 10 µM
24 | COc1cc(NC(=O)N2CCc3nc(NCc4cccc(Oc5ccccc5)c4)ncc3C2)cc(OC)c1OC | > 6.09 | – | IC50 (HEPG2TOX_HILL_SLOPE 6.86, HEPG2TOX_R_SQUARED 0.395, PBLUC_HILL_SLOPE 8.32, PBLUC_R_SQUARED 0.196, read-out: LUCIFERASE INFECTION ASSAY - IC50): 5.31 µM
25 | Cc1ccccc1C(=O)OCC(=O)c1cc(C)n(Cc2ccco2)c1C | 3.07 | – | IC50 (PBLUC_HILL_SLOPE 1.7, PBLUC_R_SQUARED 0.868, read-out: LUCIFERASE INFECTION ASSAY - IC50): 0.843 µM
26 | COC(=O)c1cc([N+](=O)[O-])ccc1N1CCN(c2cc(C)nc(C(C)C)n2)CC1 | > 10 | > 10 | –
27 | Nc1ncc(-c2cc(C(F)(F)F)cc(C(F)(F)F)c2)cc1-c1cncc2ccccc12 | > 7.62 | > 7.62 | –
28 | NS(=O)(=O)c1ccc(CCNc2nc(-c3ccc(Cl)cc3)nc3sc4c(c23)CCC4)cc1 | > 10 | – | IC50 (FFLUC_HILL_SLOPE 5.22, FFLUC_R_SQUARED 0.196, PBLUC_HILL_SLOPE 2.11, PBLUC_R_SQUARED 0.629, read-out: LUCIFERASE INFECTION ASSAY - IC50): 7.12 µM
29 | CC1CCN(CCCCOc2cccc(Cl)c2)CC1 | > 10 | > 10 | –
30 | CNC(=O)c1cccc(-c2ccc3ncc(-c4cccc(OC(F)(F)F)c4)n3n2)c1 | 4.88 | – | IC50 (PBLUC_HILL_SLOPE 8.51, PBLUC_R_SQUARED 0.256, read-out: LUCIFERASE INFECTION ASSAY - IC50): 3.77 µM
31 | OC(c1ccc(F)c(Cl)c1)c1nnc(Nc2cccc(OC(F)(F)F)c2)s1 (centres undefined) | > 10 | – | IC50 (PBLUC_HILL_SLOPE 2.34, PBLUC_R_SQUARED 0.225, read-out: LUCIFERASE INFECTION ASSAY - IC50): 9.05 µM
32 | c1cncc(-c2cnc3ccc(-c4ccoc4)nn23)c1 | > 10 | – | IC50 (HEPG2TOX_HILL_SLOPE 0.706, HEPG2TOX_R_SQUARED 0.847, PBLUC_HILL_SLOPE 1.15, PBLUC_R_SQUARED 0.722, read-out: LUCIFERASE INFECTION ASSAY - IC50): 1.63 µM
33 | COC(=O)c1ccc(CSc2nnc(NC(=O)c3ccccc3[N+](=O)[O-])s2)cc1 | 0.0537 | – | IC50 (FFLUC_HILL_SLOPE 3.72, FFLUC_R_SQUARED 0.492, PBLUC_HILL_SLOPE 2.08, PBLUC_R_SQUARED 0.667, read-out: LUCIFERASE INFECTION ASSAY - IC50): 0.0187 µM
34 | CNc1nc2cnc(Nc3ccc(C(F)(F)F)cc3)cc2n1Cc1ccccc1 | > 10 | – | IC50 (HEPG2TOX_HILL_SLOPE 3.2, HEPG2TOX_R_SQUARED 0.033, read-out: LUCIFERASE INFECTION ASSAY - IC50): > 10 µM
35 | CC(C)(C(=O)Nc1ccon1)n1cc(-c2ccc(OCCN3CCCC3)cc2)cn1 | > 10 | > 10 | –
36 | O=C(Nc1ccccc1)c1ccc(CN2CCN(CCOc3ccccc3)CC2)cc1 | 1.96 | 0.646 | –
37 | CC1(C(=O)NCc2ccco2)Cc2c(-c3ccccc3)ccnc2O1 (centres undefined) | 3.99 | – | IC50 (HEPG2TOX_HILL_SLOPE 4.72, HEPG2TOX_R_SQUARED 0.753, PBLUC_HILL_SLOPE 10.4, PBLUC_R_SQUARED 0.157, read-out: LUCIFERASE INFECTION ASSAY - IC50): 3.23 µM
38 | Cc1onc(-c2c(F)cccc2Cl)c1C(=O)NC1CCSC1=O (centres undefined) | > 9.3 | > 9.3 | –
39 | CCc1nc2oc3ccccc3c(=O)c2c(=O)n1CCc1ccccc1 | > 9.53 | – | IC50 (HEPG2TOX_HILL_SLOPE 2.79, HEPG2TOX_R_SQUARED 0.325, PBLUC_HILL_SLOPE 2.85, PBLUC_R_SQUARED 0.319, read-out: LUCIFERASE INFECTION ASSAY - IC50): 4.63 µM
40 | Cc1noc(C)c1-c1nccc2n[nH]c(-c3ccccc3)c12 | > 10 | – | IC50 (PBLUC_HILL_SLOPE 15.1, PBLUC_R_SQUARED 0.272, read-out: LUCIFERASE INFECTION ASSAY - IC50): 9.26 µM
41 | CCN1CCc2nc(NC(=O)c3nc(-c4cccs4)n(-c4ccc(F)cc4)n3)sc2C1 | > 10 | > 10 | –
42 | CCCCC(=O)NNC(=O)c1nn(-c2ccccc2)cc1O | 6.61 | – | IC50 (HEPG2TOX_HILL_SLOPE 1.96, 5.56, HEPG2TOX_R_SQUARED 0.938, 0.275, PBLUC_HILL_SLOPE 4.09, 13.0, PBLUC_R_SQUARED 0.105, 0.390, read-out: LUCIFERASE INFECTION ASSAY - IC50): 4.4 µM

Source: ChEMBL document CHEMBL4483862, “Open-source discovery of chemical leads for next-generation chemoprotective antimalarials” (2018)
